Activity calls are given as the source filed them.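 The calls were made as follows: active = inhibition above 30%; inactive = inhibition at or below 30%.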

Sphingosine 1-phosphate receptor 1 (Homo sapiens), sequence (P21453 whole entry, looked up): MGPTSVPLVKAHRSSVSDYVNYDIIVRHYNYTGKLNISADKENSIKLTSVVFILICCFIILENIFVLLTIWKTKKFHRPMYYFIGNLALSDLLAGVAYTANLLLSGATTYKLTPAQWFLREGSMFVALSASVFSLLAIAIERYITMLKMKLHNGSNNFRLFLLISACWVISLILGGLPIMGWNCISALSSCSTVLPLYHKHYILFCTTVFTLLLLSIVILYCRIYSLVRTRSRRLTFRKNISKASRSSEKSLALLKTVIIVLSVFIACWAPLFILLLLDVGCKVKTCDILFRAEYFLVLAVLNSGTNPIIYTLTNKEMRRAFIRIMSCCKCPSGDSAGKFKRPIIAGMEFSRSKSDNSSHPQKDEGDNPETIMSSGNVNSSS

This experiment has as its target Sphingosine 1-phosphate receptor 1 (Homo sapiens) (UniProt P21453). The experiment in a line: blockade of S1P-driven S1P1 signalling – cell-based, fluorescence, counter-screen for OPRK1 antagonist project, confirmation (AID 652087). The note with it: Tango EDG-1-bla U2OS, beta-lactamase FRET, S1P antagonism; at 9 µM; active compounds read high. For orientation: Counterscreens check selectivity or assay interference.
Usually inhibition stands for the drop in the measured response relative to a control, in per cent. For `NC(=NC(=O)c1cccc(C(F)(F)F)c1)c1ccc(C(F)(F)F)cn1`, the inhibition is 47.1%.

As to `N#Cc1cccc(C#N)c1Oc1ccc(N)cc1`, the inhibition was 15.3% (inactive).

For the molecule `O=C(c1cnn(-c2ccc(Cl)cc2)c1C(F)(F)F)N1CCN(c2ncnc3ccsc23)CC1`, the inhibition was -19.1% (inactive).

Regarding `O=[N+]([O-])c1ccc(N/N=C2\CCOc3ccc(F)cc32)cc1`, the inhibition is 23.2% (inactive).

Take `COc1ccccc1C1CCN(Cc2ccc3c(c2)CCC(C)(C)O3)CC1`: the inhibition was -5.53% (inactive).

For `CC(=O)c1sc2nc(-c3cccs3)cc(C(F)(F)F)c2c1N`, the inhibition was 2.13% (inactive).

`O=[N+]([O-])c1ccc(-c2ccc(/C=N/Nc3ccccc3)o2)cc1`: the inhibition was 92.1%.

As for `CN(C)c1cccc2c1c(NC(=O)Nc1ccc(OCc3ccccc3)cc1)nn2C`, the inhibition was -0.3% (inactive).

As for `COc1cccc(C(=O)c2sc3nsc(SCc4ccc(F)cc4)c3c2N)c1`, the inhibition was -12.7% (inactive).

For the molecule `O=[N+]([O-])c1ccc(-c2ccc(/C=N/NC(=S)Nc3cccc(F)c3)o2)cc1`, the inhibition is 67.9%.

Consider `CCOC(=O)[C@@H](N)CCSC`, for which the inhibition is -3.49% (inactive).

`CCOC(=O)c1cc(C(=O)OC)c(C)nc1N1CCC(NC2CCCCC2O)CC1` (stereo unspecified): the inhibition is -1.54% (inactive).

For the molecule `COc1ccc(OS(=O)(=O)c2sc(Br)cc2Br)cc1`, the inhibition was 11.6% (inactive).

For `Clc1ccc2nc3c(nc2c1)Nc1ccccc1S3`, the inhibition was 94.9%.

As to `COC(=O)c1cc(-c2ccc(OC)cc2)c(-c2ccc(OC)cc2)s1`, the inhibition is 9.19% (inactive).

On to `CCOC(=O)C1CCN(Cc2cccc(NC(=O)c3cccs3)c2)CC1`, for which the inhibition was 15.1% (inactive).

As to `COC(=O)c1ccc(/C=C2\C(=O)Nc3ccccc32)n1-c1ccc(F)cc1`, the inhibition is 9.9% (inactive).

As for `O=C1c2ccc(Cl)c3c(N4CCSCC4)ccc(c23)C(=O)N1c1ccccc1`, the inhibition is -15.7% (inactive).

For `CCOC(=O)c1ccc(N2CC3CCCCN3C2c2cccc(OC)c2O)cc1` (stereo unspecified), the inhibition is -25.2% (inactive).

Regarding `O=C(/C=C/c1cc(-c2ccccc2)c(C(F)(F)F)s1)c1cccs1`, the inhibition is 23.6% (inactive).

Consider `S=C(NNc1c(Cl)cncc1Cl)Nc1ccc(Cl)cc1Cl`, for which the inhibition is 45.3%.

Regarding `O=[N+]([O-])c1c(Sc2ccc(Cl)cc2)ccc2nsnc12`, the inhibition was 76.9%.

`C=CCn1c(-c2sc3nnc(-c4ccccc4)c(-c4ccccc4)c3c2N)n[nH]c1=S`: the inhibition is 33.4%.

As for `COc1ccccc1NC(=O)NCCN1CCN(Cc2ccccc2)CC1`, the inhibition was 66.8%.

Turning to `COc1ccc([N+](=O)[O-])c(S(=O)(=O)c2ccc(Cl)cc2)n1`, the inhibition was 12.7% (inactive).

As for `N#Cc1cccnc1NNC(=O)COCC(=O)O`, the inhibition is 86.5%.

Turning to `Nc1c(C(=O)N/N=C/c2ccc3c(c2)OCO3)sc2nnc(-c3ccccc3)c(-c3ccccc3)c12`, the inhibition was 65%.

On to `CCCCCC[n+]1ccccc1/C=C/c1ccc(N(C)C)cc1`, for which the inhibition is 99.1%.

With `COC(=O)c1cnn(-c2ccc(Cl)cc2)c1C=C(C#N)C#N`, the inhibition is 45.1%.

In the case of `CCOC(=O)c1cn[nH]c1NC(=S)Nc1cccc(C(F)(F)F)c1`, the inhibition was 71.7%.

As for `CCCCCCCCCCCC(=O)ON1C(=O)CCC1=O`, the inhibition is 51.2%.

In the case of `CC(=O)Nc1onc(C)c1-c1nc(-c2ccc(Cl)cc2Cl)cs1`, the inhibition was -6.28% (inactive).

With `COc1cc([N+](=O)[O-])c(OC)cc1SCc1n[nH]c(=S)n1-c1ccc(C)cc1`, the inhibition is 3.13% (inactive).

For `CN(C)c1ccc(-n2nnnc2SCc2ccc(Cl)cc2)cc1`, the inhibition is 37.2%.

Regarding `CC(CCC(C)OC(=O)c1ccccc1C(=O)O)OC(=O)c1ccccc1C(=O)O` (stereo unspecified), the inhibition was -6.9% (inactive).

`N#Cc1c(S/C=C(\O)c2cc3ccccc3o2)nc2c(c1C(F)(F)F)CCCC2`: the inhibition was 14.5% (inactive).

Consider `O=c1c2cc(-c3ccccc3)sc2nnn1/N=C/c1cccs1`, for which the inhibition was 15.2% (inactive).

On to `O=C(NNC(=O)C(F)(F)F)c1ccc[nH]1`, for which the inhibition was -19.8% (inactive).

With `COc1cccc(/C=C(\C#N)c2ccc([N+](=O)[O-])cc2)c1OC`, the inhibition was 52.1%.

Take `CCOC(=O)C1CCN(Cc2cccc(NC(=O)c3ccco3)c2)CC1`: the inhibition is 15.4% (inactive).

Take `Oc1c(Cl)cc(Cl)cc1C1Nc2cc(Cl)c(C(F)(F)F)cc2N1` (stereo unspecified): the inhibition is 38.5%.

For `O=C(Nc1ccc([N+](=O)[O-])cc1)Nc1csc(-c2cccnc2)n1`, the inhibition is 5.35% (inactive).

On to `Cc1ccc(/C=c2\sc3nc4ccccc4n3c2=O)o1`, for which the inhibition was -0.81% (inactive).

For the molecule `CS(=O)(=O)/C(C#N)=C\c1ccc(Cl)s1`, the inhibition was -11.8% (inactive).

Consider `C#Cc1cccc(NC(=O)c2sc3nc4c(c(-c5cccs5)c3c2N)CCCC4)c1`, for which the inhibition is 46.3%.

Regarding `CC(=O)N1CCC(C(=O)O/N=C(\N)c2ccc(Cl)cc2)CC1`, the inhibition is 16.3% (inactive).

On to `CSc1ccc(/C=C/c2onc(C)c2[N+](=O)[O-])s1`, for which the inhibition is 10.1% (inactive).

Turning to `Clc1ccc2c(Nc3ccc4c(c3)OCO4)ccnc2c1`, the inhibition was -9.65% (inactive).

Turning to `CCN(CC)c1ccc(/C=C/c2ccc([N+](=O)[O-])cc2C#N)cc1`, the inhibition is 55.7%.

For `COC(=O)/C=C1\SC(=Nc2ccc(Cl)cc2)N(c2ccc(Cl)cc2)C1=O`, the inhibition was 42.5%.

Turning to `Nc1c(C(=O)c2ccccc2)sc2nsc(SCCN3CCCC3)c12`, the inhibition was 27.5% (inactive).

Consider `CCCCNc1ccc2c3c(cccc13)C(=O)N(CCCC)C2=O`, for which the inhibition was 93.5%.

`O=C(Nc1ccc(F)c(Cl)c1)c1cc(Br)ccc1O`: the inhibition was 51.5%.

For `O=[N+]([O-])c1ccc(N/N=C/c2ccc(-c3cccs3)s2)nc1`, the inhibition is 79.4%.

Take `O=C(O)C(F)(F)C(F)(F)C(=O)NCc1cccc(Cl)c1`: the inhibition was -3.44% (inactive).

With `C=CCNC(=S)NNC(=O)c1oc2nc(-c3ccc(Cl)cc3)cc(-c3ccccc3)c2c1N`, the inhibition is 8.18% (inactive).

For `CN(C)c1cc(NC(=O)Nc2ccccc2)c2ccccc2n1`, the inhibition was -14.9% (inactive).

As to `O=[N+]([O-])c1ccc(N2CCc3ccccc32)cc1`, the inhibition was 36.8%.

Take `CSc1sc(C(=O)NC(=O)Nc2ccc(Cl)cc2)c2c1-c1nocc1CC2`: the inhibition is 18.7% (inactive).

With `Brc1ccc(-c2csc(Nc3ccncc3)n2)cc1`, the inhibition was 65.4%.

In the case of `Cn1c(=O)c2cc3cc(Cl)ccc3nc2c2c(=O)n(-c3ccccc3)c(=O)n(-c3ccccc3)c21`, the inhibition was 59.2%.

Consider `CC1COC(c2cccc([N+](=O)[O-])c2)N1` (stereo unspecified), for which the inhibition is 2.16% (inactive).

With `c1ccc(-c2cc3ncnc(NCc4ccc5c(c4)OCO5)c3s2)cc1`, the inhibition is 4.01% (inactive).

On to `O=C(N/C(=C\c1ccc(-c2ccc([N+](=O)[O-])cc2)o1)c1nc2ccccc2[nH]1)c1ccccc1`, for which the inhibition was 73.1%.

For the molecule `O=C(Nc1ccc(Cl)cc1Cl)c1cc([N+](=O)[O-])cc2c1-c1ccc([N+](=O)[O-])cc1C2=O`, the inhibition was 63.3%.

In the case of `O=[N+]([O-])c1ccc(C2=NN(c3ccccc3)C(c3ccco3)C2)cc1` (stereo unspecified), the inhibition is 124%.

The values are drawn from PubChem BioAssay AID652087 (The Scripps Research Institute Molecular Screening Center, 2013).
